“Also recorded” adds a separate entry of the source. Read-outs that look alike come from different tables or passages of the source. Non-standard residues stand in square brackets, D forms with d. Residues, ends and D or L forms follow the SMILES beside them. *: point of attachment. Dmt = Cc1cc(O)cc(C)c1C[C@H](N)C(=O)O; Tic = O=C(O)[C@@H]1Cc2ccccc2CN1; NHtBu = CC(C)(C)N*
Columns and labels:
δ-opioid receptors [1] = biological target: T1, δ-opioid receptors (Rattus norvegicus, UniProt P33533); assay: Rat brain synaptosome (P2) binding, δ antagonist [3H]N,N(CH3)2-Dmt-Tic-OH (Example 47); settings: for Antagonist K1μ/Kiδ: selectivity, Kiδ from antagonist radioligand [3H]N,N(CH3)2-Dmt-Tic-OH
T1 construct: assayed with a rat brain synaptosomal preparation (P2); from tissue; host or cells: rat brain P2 synaptosomes

hMDR-1 = hMDR-1 (Homo sapiens, UniProt P08183); assay: Calcein AM assay for Pgp in hMDR-1 transfected G-185 fibroblasts (Example 49); settings: for order of inhibition of hMDR-1: rank within amide series; for inhibition of hMDR-1 (Pgp), in words: calcein fluorescence
Description: Stably transfected G-185 fibroblasts containing hMDR-1 and NIH 3T3 cell lines were grown to confluent monolayers in DMEM containing 4.5 g glucose/1, 10% fetal calf serum, L-glutamine, penicillin (50 units/ml), streptomycin (50 μg/ml) and 1 mM sodium pyruvate in 5% CO2 at 37° C. G-185 cells were maintained in […] colchicine.
The assay for Pgp is based on the diffusion of non-fluorescent calcein AM across the cell membrane. Calcein AM is then hydrolyzed and accumulates as the fluorescent calcein. In transfected cells expressing excess hMDR-1, Pgp extrudes calcein AM from the cell before hydrolysis occurs; inhibition of hMDR-1 results in the accumulation of intracellular calcein. Transfected G-185 cells and the NIH 3T3 cells were analyzed in triplicate using seven graded dosages of verapamil or the opioid peptides in 96-well plates. Cells (2.5×10^6/well) were incubated in 100 μl culture medium for 15 min at 37° C. and 50 μl of 1 μM calcein AM in PBS, plus 50 μl of verapamil or one of the present inventive compounds in PBS, or 100 μl of PBS alone (control) were added. Cells were mixed and incubated for 15 min at 37° C., then centrifuged for 5 min at 2,000×g, and then washed three times in 200 μl PBS. Cell pellets were resuspended in 200 μl PBS and transferred to white Microfluor Plates (Nunc, Copenhagen, Denmark) in order to measure calcein-specific fluorescence (494 nm absorption; 517 nm emission). Internal controls were carried out with each experiment using verapamil and PBS in order to compare the consistency between cell preparations. Means±SE (error bars) were determined and plotted using Prism™ (GraphPad, San Diego, Calif.).

δ-opioid receptors [2] = biological target: T1, δ-opioid receptors; assay: Rat brain synaptosome (P2) binding, agonist [3H]DPDPE (Example 47); settings: for δ/μ selectivity, in words: from Table II binding; for Agonist K1μ/Kiδ: selectivity, Kiδ from agonist radioligand [3H]DPDPE
μ receptors = μ receptors (Cavia porcellus, UniProt P97266); assay: Guinea pig ileum (GPI) functional bioassay (Example 48)
Description: (§1) The functional bioactivity of the present inventive compounds was assessed using standard functional bioassays of δ and μ activity in MVD and GPI (Salvadori et al. (1995), supra; and Salvadori et al., J. Med. Chem. 36: 3748-3756 (1993)). […] Dose-response curves were obtained (Salvadori et al. (1995), supra) for both tissues. […] Data were derived from at least four independent tissue samples and dose-response curves from which the pA2 values were determined (Salvadori et al. (1997), supra) according to Arunlakshana and Schild (Br. J. Pharmacol. 14: 48-58 (1959)).

μ-opioid receptors = biological target: T2, μ-opioid receptors (Rattus norvegicus, UniProt P33535); assay: Rat brain synaptosome (P2) binding, [3H]DAGO (Example 47)
T2 construct: assayed with a rat brain synaptosomal preparation (P2); from tissue; host or cells: rat brain P2 synaptosomes

δ receptors = δ receptors (Mus musculus, UniProt P32300)
Description: as §1

[3] = MVD pA2 (range), δ antagonism against deltorphin C, mean (range)
[4] = MVD Ke(nM), δ antagonism, Ke = antilog of pA2

hMDR-1, sequence (P08183 whole entry): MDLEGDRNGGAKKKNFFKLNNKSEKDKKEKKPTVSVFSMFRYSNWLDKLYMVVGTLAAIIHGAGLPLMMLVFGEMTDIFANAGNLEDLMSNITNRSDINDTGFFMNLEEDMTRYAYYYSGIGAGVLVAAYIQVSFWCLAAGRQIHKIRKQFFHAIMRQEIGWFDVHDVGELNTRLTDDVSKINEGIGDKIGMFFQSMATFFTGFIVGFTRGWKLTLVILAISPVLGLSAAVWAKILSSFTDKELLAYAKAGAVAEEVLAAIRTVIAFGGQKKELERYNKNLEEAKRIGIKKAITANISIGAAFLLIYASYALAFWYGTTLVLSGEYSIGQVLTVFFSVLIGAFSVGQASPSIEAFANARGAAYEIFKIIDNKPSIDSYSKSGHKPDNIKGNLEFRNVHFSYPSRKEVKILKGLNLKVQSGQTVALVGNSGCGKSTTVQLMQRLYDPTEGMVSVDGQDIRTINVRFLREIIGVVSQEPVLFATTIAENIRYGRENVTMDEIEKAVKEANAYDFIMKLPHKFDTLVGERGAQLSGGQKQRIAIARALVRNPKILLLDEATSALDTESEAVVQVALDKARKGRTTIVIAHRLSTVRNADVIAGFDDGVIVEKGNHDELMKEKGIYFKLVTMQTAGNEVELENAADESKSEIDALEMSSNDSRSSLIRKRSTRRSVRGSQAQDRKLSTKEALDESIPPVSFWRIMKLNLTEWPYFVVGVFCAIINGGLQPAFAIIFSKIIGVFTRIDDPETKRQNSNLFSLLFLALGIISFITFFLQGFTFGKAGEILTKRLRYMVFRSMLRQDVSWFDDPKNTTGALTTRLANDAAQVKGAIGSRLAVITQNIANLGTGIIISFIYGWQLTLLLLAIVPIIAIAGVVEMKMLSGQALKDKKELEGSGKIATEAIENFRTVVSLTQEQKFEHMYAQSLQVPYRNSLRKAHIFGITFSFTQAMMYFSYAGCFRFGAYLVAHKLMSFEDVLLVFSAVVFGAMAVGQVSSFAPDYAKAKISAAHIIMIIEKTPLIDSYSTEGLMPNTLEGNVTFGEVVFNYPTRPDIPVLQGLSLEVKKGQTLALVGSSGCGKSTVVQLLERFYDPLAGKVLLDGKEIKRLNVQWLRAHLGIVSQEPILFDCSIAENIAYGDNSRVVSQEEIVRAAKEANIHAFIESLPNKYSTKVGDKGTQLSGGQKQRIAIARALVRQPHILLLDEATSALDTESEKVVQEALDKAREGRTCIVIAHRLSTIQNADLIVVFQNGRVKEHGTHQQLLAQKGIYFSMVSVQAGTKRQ
μ receptors, sequence (P97266 whole entry, looked up): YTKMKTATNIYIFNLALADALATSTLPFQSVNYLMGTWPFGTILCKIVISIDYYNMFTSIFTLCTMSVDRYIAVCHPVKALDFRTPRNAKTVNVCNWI
δ receptors, sequence (P32300 whole entry): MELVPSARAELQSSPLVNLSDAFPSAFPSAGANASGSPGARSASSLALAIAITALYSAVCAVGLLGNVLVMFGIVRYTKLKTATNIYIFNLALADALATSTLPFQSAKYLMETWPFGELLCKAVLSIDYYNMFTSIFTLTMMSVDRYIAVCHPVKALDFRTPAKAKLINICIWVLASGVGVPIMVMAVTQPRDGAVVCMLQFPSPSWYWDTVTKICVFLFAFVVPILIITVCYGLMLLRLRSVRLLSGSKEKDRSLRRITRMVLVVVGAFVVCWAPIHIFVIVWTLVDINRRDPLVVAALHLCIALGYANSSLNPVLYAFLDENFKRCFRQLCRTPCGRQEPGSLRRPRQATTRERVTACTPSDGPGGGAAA
T2 sequence (P33535 whole entry): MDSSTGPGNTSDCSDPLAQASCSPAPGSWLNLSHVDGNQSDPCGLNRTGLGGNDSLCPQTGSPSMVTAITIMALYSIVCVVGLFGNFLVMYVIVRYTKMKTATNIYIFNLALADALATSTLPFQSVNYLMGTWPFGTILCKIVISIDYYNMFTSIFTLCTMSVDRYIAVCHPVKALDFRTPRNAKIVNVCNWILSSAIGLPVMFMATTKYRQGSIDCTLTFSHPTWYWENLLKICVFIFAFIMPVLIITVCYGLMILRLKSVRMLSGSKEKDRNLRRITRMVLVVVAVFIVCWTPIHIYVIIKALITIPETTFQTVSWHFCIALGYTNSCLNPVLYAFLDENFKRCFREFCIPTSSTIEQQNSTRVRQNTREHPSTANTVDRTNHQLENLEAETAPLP
T1 sequence (P33533 whole entry): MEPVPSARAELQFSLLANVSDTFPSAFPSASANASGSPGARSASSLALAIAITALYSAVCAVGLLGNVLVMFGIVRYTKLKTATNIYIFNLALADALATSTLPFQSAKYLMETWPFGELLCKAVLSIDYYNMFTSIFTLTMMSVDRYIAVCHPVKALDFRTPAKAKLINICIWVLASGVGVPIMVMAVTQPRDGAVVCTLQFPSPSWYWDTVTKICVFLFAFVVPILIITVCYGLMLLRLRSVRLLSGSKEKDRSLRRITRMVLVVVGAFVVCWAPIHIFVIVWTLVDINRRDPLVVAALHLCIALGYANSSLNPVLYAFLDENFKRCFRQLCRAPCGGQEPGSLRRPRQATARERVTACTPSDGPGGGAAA

Compound: Cc1cc(O)cc(C)c1C[C@@H](C(=O)N1Cc2ccccc2C[C@H]1C(=O)NC12CC3CC(CC(C3)C1)C2)N(C)C [Compound 15, N,N(Me)2-Dmt-Tic-NH-1-adamantane]
- Ki (δ-opioid receptors [1]): 0.12 ± 0.02 nM
- Antagonist K1μ/Kiδ (δ-opioid receptors [1]): 9
- order of inhibition of hMDR-1 (hMDR-1): (compound 15)=H-Dmt-Tic-NH-1-adamantane (compound 11)
- Ki (δ-opioid receptors [2]): 0.16 ± 0.17 nM
- δ/μ selectivity, in words (δ-opioid receptors [2]): essentially nonselective
- Agonist K1μ/Kiδ (δ-opioid receptors [2]): 7
- EC50 (μ receptors): 16 nM
- bioactivity on GPI (μ), in words (μ receptors): clearly displayed μ agonism
- Ki (μ-opioid receptors): 1.12 ± 0.1 nM
- rise in μ affinity relative to N,N(Me)2-Dmt-Tic-OH (μ-opioid receptors): ~2,200 fold
- Kb (δ receptors; [3]): 0.871 nM
- MVD Ke (δ receptors; δ antagonism, Ke = antilog of pA2): 0.87 nM

Compound: Cc1cc(O)cc(C)c1C[C@H](N)C(=O)N1Cc2ccccc2C[C@H]1C(=O)NC(C)(C)C [Compound 9, H-Dmt-Tic-NH-tBu] (H-[Dmt]-[Tic]-NHtBu)
- Ki (δ-opioid receptors [1]; rat brain synaptosomes (P2), δ antagonist radioligand, mean ± SEM, n in parentheses, read-out: Kiδ(nM) [^3H]N,N(CH3)2-Dmt-Tic-OH): 0.93 ± 0.15 nM
- Antagonist K1μ/Kiδ (δ-opioid receptors [1]): 6
- order of inhibition of hMDR-1 (hMDR-1): (compound 9)>>H-Dmt-Tic-NHMe (compound 7) (inactive)
- δ/μ selectivity, in words (δ-opioid receptors [2]): essentially nonselective
- Ki (δ-opioid receptors [2]; rat brain synaptosomes (P2), mean ± SEM, n in parentheses, read-out: Kiδ(nM) [^3H]DPDPE): 0.43 ± 0.07 nM
- Agonist K1μ/Kiδ (δ-opioid receptors [2]): 14
- EC50 (μ receptors): 1040 nM
- Ki (μ-opioid receptors; rat brain synaptosomes (P2), mean ± SEM, n in parentheses, read-out: Kiμ (nM) [^3H]DAGO): 5.96 ± 0.82 nM
- bioactivity on MVD (δ), in words (δ receptors): highest δ-antagonist functional bioactivities
- Kb (δ receptors; [4]): 1.74 nM
- Kb (δ receptors; [3]): 5.75 nM

Compound: Cc1cc(O)cc(C[C@H](N)C(=O)N[C@H](Cc2ccccc2)C(=O)NCC(=O)N[C@H](C(=O)N[C@H](C(N)=O)C(C)C)C(C)C)c1C [DPD, H-Dmt-D-Phe-Gly-Val-Val-NH2]
- inhibition of hMDR-1 (Pgp), in words (hMDR-1): inactive

Compound: CC(C)[C@H](NC(=O)[C@H](CCC(=O)O)NC(=O)[C@H](Cc1ccccc1)NC(=O)[C@@H](C)NC(=O)[C@@H](N)Cc1ccc(O)cc1)C(=O)N[C@H](C(=O)NCC(N)=O)C(C)C [deltorphin B, H-Tyr-D-Ala-Phe-Glu-Val-Val-Gly-NH2]
- inhibition of hMDR-1 (Pgp), in words (hMDR-1): inactive

Compound: Cc1cc(O)cc(C)c1C[C@@H]1NC(=O)[C@@H]2Cc3ccccc3CN2C1=O [cyclo (DMT-Tic), reference compound]
- Antagonist K1μ/Kiδ (δ-opioid receptors [1]): no activity
- inhibition of hMDR-1 (Pgp), in words (hMDR-1): moderately effective inhibitor
- Ki (δ-opioid receptors [2]): 9.58 ± 1.98 nM
- Agonist K1μ/Kiδ (δ-opioid receptors [2]): 635 ± 69 (3-5)
- Kiμ (nM) [^3H]DAGO (μ-opioid receptors; rat brain synaptosomes (P2), mean ± SEM, n in parentheses): no activity

Compound: H-Tyr-D-Ala-Gly-N-MePhe-Met(O)-ol [DAMME]
- inhibition of hMDR-1 (Pgp), in words (hMDR-1): inactive; also recorded: lack of inhibition

Compound: CC1(C)SSC(C)(C)[C@@H](NC(=O)[C@@H](N)Cc2ccc(O)cc2)C(=O)NCC(=O)N[C@@H](Cc2ccccc2)C(=O)N[C@H]1C(=O)O [DPDPE, H-Tyr-[D-Pen-Gly-Phe-D-Pen] enkephalin]
- inhibition of hMDR-1 (Pgp), in words (hMDR-1): inactive; also recorded: lack of inhibition

Compound: Cc1cc(O)cc(C)c1C[C@H](N)C(=O)N1Cc2ccccc2C[C@H]1C(=O)NC12CC3CC(CC(C3)C1)C2 [Compound 11, H-Dmt-Tic-NH-1-adamantane]
- Ki (δ-opioid receptors [1]): 1.01 ± 0.26 nM
- Antagonist K1μ/Kiδ (δ-opioid receptors [1]): 0.8
- order of inhibition of hMDR-1 (hMDR-1): (compound 11)>H-Dmt-Tic-Ala-NH-1-adamantane (compound 21)
- Ki (δ-opioid receptors [2]): 0.26 ± 0.05 nM
- δ/μ selectivity, in words (δ-opioid receptors [2]): weakly μ selective
- Agonist K1μ/Kiδ (δ-opioid receptors [2]): 3
- EC50 (μ receptors): 36 nM
- bioactivity on GPI (μ), in words (μ receptors): moderate μ agonism
- Ki (μ-opioid receptors): 0.76 ± 0.05 nM
- EC50 (δ receptors): 870 nM
- Kb (δ receptors; [4]): > 10000 nM

— patent US6916905B2, “Dmt-Tic di-and tri-peptidic derivatives and related compositions and methods of use” (The United States of America as represented by the …, priority 2000, dated 2005)
